Data taken from a melting point compilation (Tetko et al.; mined from patent text by program, amines drawn as free bases though some values may be those of a salt).

Structure (SMILES)	melting point [°C]
COC1(c2cc(F)cc(CC#COC#CCc3cc(F)cc(C4(OC)CCOCC4)c3)c2)CCOCC1	75 to 77
C[C@@H](n1ccn(-c2ccc(-n3ccnn3)cc2)c1=O)[C@](O)(Cn1cncn1)c1ccc(F)cc1F	178 to 181
C=CCSc1cc(C(=O)O)cc(S(N)(=O)=O)c1Oc1ccccc1	218 to 219
CCC(CC)N(O)C(=O)Nc1ccc(-c2ccccc2)cc1	183 to 184
Nc1ccccc1Sc1ccccc1-c1nnn[nH]1	153 to 156
N#CC=C1CCc2cnc3c(c21)CCO3	153 to 155
CC(=O)N(C(C)=O)c1nc2n(n1)CCc1ccccc1-2	139 to 140
CN1CCN(c2ccc(Cl)c(C3(C)C(=O)Nc4ccc(Cl)cc43)c2)CC1 (centres undefined)	155
c1cnc(-c2n[nH]c(-c3cnccn3)n2)cn1	269 to 270
O=C1c2cc(O)ccc2OCC1Oc1ccccc1 (centres undefined)	142 to 146
CCN1CCN(C(=O)NC(C(=O)NC2C(=O)N(OCc3ccccc3)C2C)c2ccccc2)C(=O)C1=O (centres undefined)	100 to 105
CN(CC(=O)O)C(=O)CCS	157 to 158
CC1(N)CN(c2c(F)cc3c(=O)c(C(=O)O)cn(-c4ccc(F)cc4)c3c2F)C1	272 to 277
CC#COc1cccc2oc3ccccc3c(=O)c12	168 to 169
C/C(=N\OC(=O)C1CCN(C(=O)OC(C)(C)C)CC1)[C@H]1CC[C@H]2[C@@H]3CCC4=CC(=O)CC[C@]4(C)[C@H]3CC[C@]12C	167 to 169
O=C(Nc1ccc2c(c1)C(=O)C1(CC1)O2)OCc1ccccc1	118 to 119
O=[N+]([O-])c1ccc(O)c(C(F)(F)F)c1	103 to 104
CSc1ccc(C2C(=O)c3ccccc3C2=O)cc1	153 to 155
CCNC(C)c1nc(CSCCNC(=C[N+](=O)[O-])NC)cs1 (centres undefined)	114 to 116
O=C1C(=O)c2ccc(-c3ccccc3)cc2C2=C1SCC1(CCN(CC(O)COc3ccc(Cl)cc3)CC1)O2 (centres undefined)	93 to 98

Structure (SMILES)	melting point [°C]
N#Cc1ccccc1N1CCN(C[C@@H](O)COc2cccc(-c3noc4ccsc34)c2)CC1	87 to 89
CCNC(=O)Nc1ccc(-c2nc3n(Cc4c(F)cccc4F)cc(C(=O)OC(C)C)c(=O)n3c2CN(C)Cc2ccccc2)cc1	198 to 200
CS(=O)(=O)OCC1(c2ccccc2)CCCC1	55 to 60
CN(C)CCOc1ccc(O)c(C=NCCN=Cc2cc(OCCN(C)C)ccc2O)c1	84 to 86
Cc1cc(C)n(C)c1C(=O)c1cccnc1	195 to 197
N#CC1c2cc(OCc3ccccc3)cc(OCc3ccccc3)c2C=CN1C(=O)c1ccccc1 (centres undefined)	123 to 125
Cc1c[nH]c2c(NC(=O)c3c(Cl)cccc3Cl)cccc2c1=O	> 300
CN(Cc1ccc(COOC(=O)NC(Cc2ccccc2)C(=O)O)cc1)c1ccccc1 (centres undefined)	69.6 to 70.1
O=C(c1ccc(O)cc1)c1ccc(OCCBr)cc1	136 to 138
CS(=O)(=O)Nc1cc([C@@H](O)CNC2CCN(c3ccc(S(=O)(=O)N4CCC[C@@H]4C(=O)OCc4ccccc4)cc3)CC2)ccc1O	62 to 69
OCCCc1c[nH]c2ccc(-n3cnnc3)cc12	205 to 207
Cc1c(C(=O)O)sc(=O)c2ccccc12	243 to 245
Cc1cc(-n2ccnc2)c2cccc(OCc3c(Cl)ccc(S(=O)(=O)N4CCCC4C(=O)NCC4CCN(C(=O)CC(=O)OC(C)(C)C)CC4)c3Cl)c2n1 (centres undefined)	101
Nc1ncnc2c1c(-c1ccc(NS(=O)(=O)c3ccccc3)c(O)c1)cn2C1CCCC1	265 to 267
Cn1cncc1C(O)(c1ccc2ncccc2c1)c1ccc2nc(Cl)nc(-c3cccc(Cl)c3)c2c1 (centres undefined)	250
NS(=O)(=O)c1ccc(-c2cccc(-c3nc(-c4ccc(C(F)(F)F)nc4)cc(C(F)F)n3)c2)s1	246
Cc1ccc(O)c(Cn2c(NC3CCNC(CCN4CCOCC4)C3)nc3ccc(C=Cc4ccccc4)cc32)n1 (centres undefined)	224
CC(=O)NCc1ccc2c(c1)N(C1CCNCC1)CC2	165 to 167
CC(C)(CO)CCCCCCCCCCCC(O)(CC(=O)O)CC(=O)O	102 to 103

Further lines, results first:

melting point [°C]	Structure (SMILES)
93 to 95	COc1cccc(CC(=S)SCC(=O)O)c1
124 to 126	CCCCc1cc(N)n2nccc2n1
83 to 84	C#CCOc1cnc(C2=NC(C)(C(C)C)C(=O)N2)c(C(=O)OC)c1 (centres undefined)
144 to 148	COCCc1nc2c(N)nc3cc(OCc4ccccc4)ccc3c2n1CCCCNS(C)(=O)=O
208 to 210	Cc1ncc2cc(-c3cc(C(F)(F)F)cc(C(F)(F)F)c3)ccc2n1
135 to 137	C=CCN(C)C/C=C/COc1cc2c(cc1F)c(-c1ccc(Br)cc1)nn2C
238 to 239	COc1cc2c(cc1OC)[C@@H](c1ccc([N+](=O)[O-])cc1)NN(C1=NC(=O)CS1)[C@@H](C)C2
186 to 187	CCN(Cc1ccc2nc(C)[nH]c(=O)c2c1)C(N)=S
176 to 177	COc1cccc(CC(=O)O)c1OCCCc1cn(-c2ccc(NS(C)(=O)=O)cn2)nc1C(C)C
64 to 66	COC(=O)C1=C(Cl)/C(=N/OS(C)(=O)=O)CC(c2ccc(Cl)c(OC)c2F)N1 (centres undefined)
> 230	CSc1nn2c(N)cc(C)nc2c1S(=O)(=O)c1ccccc1
159 to 160	COc1ccc(CNc2nc(SC)ncc2CO)cc1Cl
138	CCC(NS(=O)(=O)c1ccc(Cl)c(Cl)c1)c1cnc(Oc2ccc(F)cc2)n1CC (centres undefined)
74 to 76	COc1cc(Br)cc([N+](=O)[O-])c1OCc1ccccc1
287 to 290	CS(=O)(=O)Nc1ccc2ncnc(N)c2c1
196 to 197	COCCc1nc2c(N)nc3cc(OCc4cccc(C#N)c4)ccc3c2n1CC(C)(C)O
78.5 to 79	Cc1nc(-c2ccc(OCCCc3ccccc3)cc2)no1
203 to 206	COc1cc(C(=O)CS(=O)(=O)c2ccccc2)ccc1Cc1cn(C)c2ccc(NC(=O)NC3CCCC3)cc12
326 to 330	CC1(C)CNc2nc3cnc4ccccc4c3n2C1
87 to 88	C=CCNc1nc(NCCOC)nc2c(C)csc12
172 to 173	COc1cc2c(cc1OCc1ccccc1)C=C(C(=O)O)CCC2
131 to 133	CCOC(=Nc1nc(C)cc(OC)n1)NS(=O)(=O)c1ccccc1OC(F)F
183 to 185	COc1ccc(C#N)cc1/C=C/C(=O)Sc1nc2ccccc2s1
156 to 157	CC(C)(CNc1ccnc2cc(Cl)ccc12)NCc1cccc(C(F)(F)F)c1
209 to 210	COc1cc(Cc2cnc(N)nc2N)cc(OC)c1N
164 to 165	COc1ccc(CS(=O)(=O)CC(=O)O)cc1O
118 to 119	CC(C)Oc1ccc(CCCOc2cc(CCC(=O)O)n(-c3ccccc3)n2)c(OCc2ccc(C(F)(F)F)cc2)c1
173 to 175	COc1cc2c(cc1OC)C(C(S)(C#N)CC(=O)O)=NCC2 (centres undefined)
132	Nc1cc(=O)n(Cc2ccc(Cl)c(C(F)(F)F)c2)[nH]1
191	COc1ccc(CNc2ncnc3c2ncn3C2OC(CN=[N+]=[N-])C(O)C2O)cc1 (centres undefined)
